Test results from patent publication US9370189B2, “Controlling Pseudomonas aeruginosa persister cells with GM-CSF” (priority 2012, dated 2016).

Tests used:
E. coli K12 = assay: Effect of GM-CSF on planktonic E. coli K12 cells (total viable cells and persisters) at exponential phase, alone and with antibiotic; assay type: cell-based, Escherichia coli; conditions: for % change in avg. CFU/mL by GM-CSF (compared to GM-CSF free control) 20 μg/mL Tet / % change in avg. CFU/mL by GM-CSF (compared to GM-CSF free control) With 2 μg/mL Cip / % change in avg. CFU/mL by GM-CSF (compared to GM-CSF free control) With 70 μg/mL Tob / % change in avg. CFU/mL by GM-CSF (compared to GM-CSF free control) With 200 μg/mL Gen: E. coli K12 exponential phase, 0.17 pM GM-CSF; for % change in avg. CFU/ml after adding factor + CIP / % change in avg. CFU/ml after adding factor + TET / % change in avg. CFU/ml after adding factor + TOB / % change in avg. CFU/ml after adding factor + GEN: planktonic E. coli K12; for % change in avg. CFU/ml after adding factor + CIP: 2.43 pg/mL GM-CSF with 2 μg/mL ciprofloxacin; for % change in avg. CFU/ml after adding factor + TET: 2.43 pg/mL GM-CSF with 20 μg/mL tetracycline; for % change in avg. CFU/ml after adding factor + TOB: 2.43 pg/mL GM-CSF with 70 μg/mL tobramycin; for % change in avg. CFU/ml after adding factor + GEN: 2.43 pg/mL GM-CSF with 200 μg/mL gentamicin
Protocol: This Example describes the treatment of planktonic P. aeruginosa PAO1, PDO300 and Escherichia coli K12, with GM-CSF introduced directly or together with an antibiotic to test the synergy. All experiments were conducted with cells harvested from exponential phase subcultures with an optical density at 600 nm (OD600) of 0.3 to 0.4.
In brief, after preparing an overnight culture of the tested strain in 25 ml LB medium, a subculture was prepared with an OD600 of 0.01 in 50 mL LB medium. The subculture was incubated at 37° C. with shaking at 200 rpm for 3-4 h, till an OD600 of 0.3 to 0.4 was reached. The exponential phase subculture was then divided equally into two centrifuge tubes, each containing 25 mL of the subculture. The subcultures were washed twice with 0.85% NaCl buffer by vortexing and then centrifuging at 4° C., 8000 rpm for 10 min each time. The washed subcultures/cells were resuspended in 25 mL 0.85% NaCl buffer and vortexed gently for 1 min. One of the tubes of subculture was selected for isolation of persisters by adding 200 μg/mL ciprofloxacin (for PAO1 and PDO300 strains) or 100 μg/mL ampicillin (for E. coli K12 strain). After adding the antibiotic for persister isolation, the subculture was incubated at 37° C., shaking at 200 rpm for 3.5 h.
To test the effects of GM-CSF on viability of persisters, the second tube was used to quantify the total number of viable cells and 1 mL of the washed persister cells was divided into 6 microcentrifuge tubes; 3 were control and the other 3 were GM-CSF treatment samples. In the treatment samples, GM-CSF was added to a concentration of 2.43 pg/mL (or 0.17 pM), the same as found in healthy human bodies. The control samples were supplemented with the same concentration of PBS and BSA as present in 2.43 pg/mL (or 0.17 pM) GM-CSF samples.
After incubating at 37° C. for 1 h with shaking at 200 rpm, the samples were plated on LB agar plates (15 g/L bacto agar) using drop plate method. The agar plates were then incubated for 24 h at 37° C. to count the total number of persister cells and understand the effect of 0.17 pM GM-CSF on the viability of persister cells.
To test the synergy with antibiotics, the above samples were then incubated at 37° C. for 3.5 h with shaking at 200 rpm after adding the selected antibiotic. After 3.5 h, the CFU of samples was quantified in the same way to understand if there is any synergy between GM-CSF and antibiotic. Similar treatments were performed on the total population in exponential phase as well. Apart from exponential phase, the synergistic effects of GM-CSF with antibiotics on total viable cells and persisters were also evaluated at stationary phase but PBS buffer (pH=7.4) was used in the experiments instead of 0.85% NaCl solution. Moreover, the 1 h and 3.5 h treatments were performed as co-treatments.

[1] = tested on: P. aeruginosa PAO1 biofilm; assay: Effect of GM-CSF on 24-h PAO1 biofilm, alone and with antibiotic; assay type: cell-based, Pseudomonas aeruginosa
Protocol: (§1) This Example describes the treatment of biofilms made from P. aeruginosa PAO1, PDO300 and Escherichia coli K12, with GM-CSF introduced directly or together with an antibiotic to test the synergy.
(§2) In brief, after preparing an overnight culture, it was subcultured to an initial OD600 of 0.01 to a total volume of 20 mL M63 medium (for PAO1 and PDO300) or 20 ml LB medium (for E. coli K12) in a petri dish with 316L stainless steel coupons (1.75 cm×1 cm). The biofilm was grown for 24 h at 37° C. without shaking. After incubation, the coupons were washed by gently dipping in 0.85% NaCl twice using tweezers and were placed in new empty petri dishes.
(§3) To test the synergistic effects between GM-CSF (2.43 pg/mL or 0.17 pM) and antibiotics, a total of 8 coupons were analyzed. These 8 coupons were placed in 4 petri dishes (2 coupons in each dish). The two dishes were labeled as control and the other two as treatment samples. In the treatment samples, GM-CSF was added to 20 mL of 0.85% NaCl to a concentration of 2.43 pg/mL (or 0.17 pM). The control samples were supplemented with the same amount of PBS and BSA as present in the samples with 2.43 pg/ml (or 0.17 pM) GM-CSF. The coupons were incubated at 37° C. for 2 h.
(§4) After incubation, a control dish and a treatment dish was selected for studying the killing effect of 2.43 pg/ml GM-CSF on biofilm cells. Each coupon after gentle washing with 0.85% NaCl buffer, was placed in a test tube with 3 mL 0.85% NaCl buffer in each. They were sonicated (B200, Sinosonic Industrial Co., Ltd., Taiwan) for 4 mins to release the biofilm cells in the buffer. After vortexing for 1 min, they were plated on LB agar plates using drop plate method. The CFU was counted after incubation at 37° C. for 24 h to count the total number of viable cells. Furthermore, the synergistic effect of antibiotics with GM-CSF was evaluated with additional 3.5 h treatment with antibiotic at 37° C. After incubation, drop plate method was performed and the CFU was counted to understand if there is a synergistic effect.

E. coli K12 biofilm = assay: Effect of GM-CSF on 24-h E. coli K12 biofilm, alone and with antibiotic; assay type: cell-based, Escherichia coli
Protocol: as §1, §2, §3, §4

[2] = total viable cells, listed as factor

## GM-CSF: granulocyte macrophage-colony stimulating factor, a cytokine secreted by macrophages; recombinant human GM-CSF (R&D systems) in binding tests
E. coli K12; compared to the pathogenic strain P. aeruginosa
  effect on E. coli persister cells: ineffective
E. coli K12; persisters
  % change in avg. CFU/mL by GM-CSF (compared to GM-CSF free control) 20 μg/mL Tet: −6.7%
  % change in avg. CFU/mL by GM-CSF (compared to GM-CSF free control) With 2 μg/mL Cip: −4.8%
  % change in avg. CFU/mL by GM-CSF (compared to GM-CSF free control) With 70 μg/mL Tob: +1.5%
  % change in avg. CFU/mL by GM-CSF (compared to GM-CSF free control) With 200 μg/mL Gen: +11.1%
  % change in avg. CFU/ml after adding factor + CIP: −6.18%
  % change in avg. CFU/ml after adding factor + TET: +12.00%
  % change in avg. CFU/ml after adding factor + TOB: +11.16%
  % change in avg. CFU/ml after adding factor + GEN: +18.52%
E. coli K12; persisters, listed as factor
  % change in avg. CFU/ml after adding factor + CIP: −6.18%
  % change in avg. CFU/ml after adding factor + TET: +12.00%
  % change in avg. CFU/ml after adding factor + TOB: +11.16%
  % change in avg. CFU/ml after adding factor + GEN: +18.52%
E. coli K12; total viable cells
  % change in avg. CFU/mL by GM-CSF (compared to GM-CSF free control) 20 μg/mL Tet: −19.0%
  % change in avg. CFU/mL by GM-CSF (compared to GM-CSF free control) With 2 μg/mL Cip: +5.9%
  % change in avg. CFU/mL by GM-CSF (compared to GM-CSF free control) With 70 μg/mL Tob: −32.0%
  % change in avg. CFU/mL by GM-CSF (compared to GM-CSF free control) With 200 μg/mL Gen: −31.3%
  % change in avg. CFU/ml after adding factor + CIP: +5.88%
  % change in avg. CFU/ml after adding factor + TET: −19.05%
  % change in avg. CFU/ml after adding factor + TOB: −32.00%
  % change in avg. CFU/ml after adding factor + GEN: −31.34%
E. coli K12; [2]
  % change in avg. CFU/ml after adding factor + CIP: +5.88%
  % change in avg. CFU/ml after adding factor + TET: −19.05%
  % change in avg. CFU/ml after adding factor + TOB: −32.00%
  % change in avg. CFU/ml after adding factor + GEN: −31.34%
[1]; 24-h PAO1 biofilm, 2.43 pg/mL GM-CSF with 200 μg/mL ciprofloxacin
  % change in avg. CFU/ml after adding factor + CIP: −23.8%
[1]; 24-h PAO1 biofilm, 2.43 pg/mL GM-CSF with 200 μg/mL tetracycline
  % change in avg. CFU/ml after adding factor + TET: −10.0%
[1]; 24-h PAO1 biofilm, 2.43 pg/mL GM-CSF with 200 μg/mL tobramycin
  % change in avg. CFU/ml after adding factor + TOB: −34.1%
[1]; 24-h PAO1 biofilm, 2.43 pg/mL GM-CSF with 250 μg/mL gentamycin
  % change in avg. CFU/ml after adding factor + GEN: −12.9%
[1]; reduction, PAO1 biofilm, 2.43 pg/mL GM-CSF alone, average of 2 experiments
  average CFU/ml of biofilm cells reduced by: 1.3%
[1]; reduction, PAO1 biofilm, 2.43 pg/mL GM-CSF in the presence of 200 μg/mL ciprofloxacin
  average CFU/mL of biofilm cells reduced by: 22.8%
[1]; reduction, PAO1 biofilm, 2.43 pg/mL GM-CSF in the presence of 200 μg/mL tetracycline
  average CFU/mL of biofilm cells reduced by: 7.5%
[1]; reduction, PAO1 biofilm, 2.43 pg/mL GM-CSF in the presence of 200 μg/mL tobramycin
  average CFU/mL of biofilm cells reduced by: 33.3%
[1]; reduction, PAO1 biofilm, 2.43 pg/mL GM-CSF in the presence of 250 μg/mL gentamicin
  average CFU/mL of biofilm cells reduced by: 10.5%
E. coli K12 biofilm; 24-h E. coli K12 biofilm, 2.43 pg/mL GM-CSF with 100 μg/mL ciprofloxacin
  % change in avg. CFU/ml after adding factor + CIP: +4.8%
E. coli K12 biofilm; 24-h E. coli K12 biofilm, 2.43 pg/mL GM-CSF with 100 μg/mL tetracycline
  % change in avg. CFU/ml after adding factor + TET: +3.6%
E. coli K12 biofilm; 24-h E. coli K12 biofilm, 2.43 pg/mL GM-CSF with 100 μg/mL tobramycin
  % change in avg. CFU/ml after adding factor + TOB: +4.2%
E. coli K12 biofilm; 24-h E. coli K12 biofilm, 2.43 pg/mL GM-CSF with 125 μg/mL gentamicin
  % change in avg. CFU/ml after adding factor + GEN: +8.1%
E. coli K12 biofilm; E. coli K12 biofilm, 2.43 pg/mL GM-CSF alone, average of 2 experiments
  average CFU/mL of biofilm cells changed by: +4.83%
E. coli K12 biofilm; E. coli K12 biofilm, 2.43 pg/mL GM-CSF in the presence of 100 μg/mL ciprofloxacin
  average CFU/ml of biofilm cells changed by: +1.2%
E. coli K12 biofilm; E. coli K12 biofilm, 2.43 pg/mL GM-CSF in the presence of 100 μg/mL tetracycline
  average CFU/ml of biofilm cells changed by: −2.4%
E. coli K12 biofilm; E. coli K12 biofilm, 2.43 pg/mL GM-CSF in the presence of 100 μg/mL tobramycin
  average CFU/ml of biofilm cells changed by: +0.6%
E. coli K12 biofilm; E. coli K12 biofilm, 2.43 pg/mL GM-CSF in the presence of 125 μg/mL gentamicin
  average CFU/ml of biofilm cells changed by: +1.9%
